Measurements published in patent publication US12227509B2, “Dihydropyrazolopyrazinone derivative having MGAT2 inhibitory activity” (Shionogi & Co., Ltd., priority 2019, dated 2025).

Biological target: recombinant human MGAT2 (Homo sapiens (Human), UniProt Q3SYC2)
Experiment: Measurement of human MGAT2 inhibitory activity
Type: biochemical
Conditions: concentration exhibiting 50% enzyme inhibition, recombinant human MGAT2, 2-Oleoylglycerol/Oleoyl-CoA
Experimental: A full-length human MGAT2 gene to which a Flag-tag had been added at the N-terminal was inserted into pFastBac (from Invitrogen). A recombinant baculovirus was produced in accordance with the protocol for a Bac-to-Bac baculovirus expression system (produced by Invitrogen), and Sf-9 cells were infected therewith. The cells were collected and sonicated, and then the membrane fraction was collected through centrifugation. Western blotting analysis with an anti-Flag antibody was performed for the membrane fraction to confirm expression, and the membrane fraction was used as a recombinant human MGAT2 enzyme solution.
Solutions of the compounds of the present invention in DMSO were each aliquoted into 0.2-μL portions in a 384-well polystyrene microplate produced by Corning Incorporated, and 5 μL of an enzyme solution prepared with an assay buffer (100 mmol/L phosphate buffer (pH 7.4) containing 2 mmol/L DTT) and 5 μL of a substrate solution (100 mmol/L phosphate buffer (pH 7.4), 30 μmol/L 2-Oleoylglycerol, 10 μmol/L Oleoyl-CoA) were added thereto, and the resultant was stirred and centrifuged, and incubated in a moist chamber at room temperature for 1 hour. After enzymatic reaction, 50 μL of a quenching solution (containing 0.2 μmol/L Diolein-d5, 0.4% formic acid, and 50% isopropanol) containing Internal Standard (IS) was added to terminate the reaction, and the resultant was sealed in a plate produced by Shimadzu GLC Ltd., and then stirred and centrifuged, and measurement was performed by using an electrospray ionization method with a RapidFire360 and Agilent 6550 Q-TOF mass spectrometer. Diolein as a reaction product (P) of 2-Oleoylglycerol as the substrate and an ammonium adduct ion of the IS were detected, and the peak intensity ratio, P/IS, was calculated from the peak heights to evaluate the inhibitory activity. Inhibitory activities with/without addition of enzyme were defined as Control (+)/Control (−), respectively, and the respective % inhibitions were defined as 0% inhibition and 100% inhibition. The inhibitory activity was calculated from formula below with TIBCO Spotfire (produced by TIBCO Software Inc.)
Inhibitory activity (%)=[1−{Sample−Control (−)}/{Control (+)−Control (−)}]*100 where Sample indicates a peak intensity ratio: P/IS, when the compound of the present invention was added.

Sequence of recombinant human MGAT2 (Q3SYC2 whole entry): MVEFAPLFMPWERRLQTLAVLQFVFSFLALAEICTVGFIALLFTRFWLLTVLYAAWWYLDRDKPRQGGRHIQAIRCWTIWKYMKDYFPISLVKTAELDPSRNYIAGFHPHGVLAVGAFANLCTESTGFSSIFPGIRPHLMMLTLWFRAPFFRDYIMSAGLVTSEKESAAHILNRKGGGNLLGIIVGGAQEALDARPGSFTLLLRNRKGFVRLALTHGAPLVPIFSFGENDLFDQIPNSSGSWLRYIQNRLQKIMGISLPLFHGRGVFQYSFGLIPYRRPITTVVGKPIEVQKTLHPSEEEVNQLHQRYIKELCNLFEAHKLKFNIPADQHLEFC

Row | IC50 [nM] | Compound | other results
1 | – | CS(=O)(=O)CC(=O)Nc1c(CCCC(F)(F)F)nn2c1C(=O)NC1(CCc3cc(OCC(F)(F)F)ccc31)C2 (single isomer, unassigned) [Compound I-62] | IC50 (listed as 1-62): 1.39 nM
2 | – | CS(=O)(=O)CC(=O)Nc1c(CCCC(F)(F)F)nn2c1C(=O)NC1(CCc3cc(OCC(F)(F)F)ccc31)C2 (single isomer, unassigned) [Compound I-63] | IC50 (listed as 1-63): 1.24 nM
3 | 6.43 | C[S@@](=N)(=O)CC(=O)Nc1c(-c2ccc(F)c(Cl)c2)nn2c1C(=O)N[C@@]1(CCc3cc(OCC(F)(F)F)ccc31)C2 (single isomer, unassigned) [Compound I-72] | –
4 | 1.71 | C[S@](=N)(=O)CC(=O)Nc1c(-c2cc(F)c(F)c(F)c2)nn2c1C(=O)N[C@@]1(CCc3cc(OCC(F)(F)F)ccc31)C2 (single isomer, unassigned) [Compound I-105] | –
5 | 4.95 | C[S@@](=N)(=O)CC(=O)Nc1c(-c2cc(F)c(F)c(F)c2)nn2c1C(=O)N[C@@]1(CCc3cc(OCC(F)(F)F)ccc31)C2 (single isomer, unassigned) [Compound I-106] | –
6 | 1.19 | C[S@](=N)(=O)CC(=O)Nc1c(-c2ccc(F)c(Cl)c2)nn2c1C(=O)N[C@@]1(CCc3cc(OCC(F)(F)F)ccc31)C2 (single isomer, unassigned) [Compound I-107] | –
7 | 14 | CS(=O)(=O)CC(=O)Nc1c(-c2ccccc2)nn2c1C(=O)N[C@@]1(CCc3cc(OCC(F)(F)F)ccc31)C2 [Compound I-1] | –
8 | 6.6 | CS(=O)(=O)CC(=O)Nc1c(-c2ccccc2)nn2c1C(=O)N[C@]1(CCc3cc(OCC(F)(F)F)ccc31)C2 [Compound I-2] | –
9 | 1.93 | CS(=O)(=O)CC(=O)Nc1c(-c2ccc(C#N)cn2)nn2c1C(=O)N[C@]1(CCc3cc(OCC(F)(F)F)ccc31)C2 [Compound I-4] | –
10 | 2.81 | Cc1ccc(-c2nn3c(c2NC(=O)CS(C)(=O)=O)C(=O)N[C@]2(CCc4cc(OCC(F)(F)F)ccc42)C3)nc1 [Compound I-5] | –
11 | 3.04 | CS(=O)(=O)CC(=O)Nc1c(-c2ccc(C#N)cn2)nn2c1C(=O)NC1(CN(c3ccc(C(F)(F)F)cc3)C1)C2 [Compound I-7] | –
12 | 1.02 | N#Cc1ccc(-c2nn3c(c2NC(=O)c2ccno2)C(=O)N[C@]2(CCc4cc(OCC(F)(F)F)ccc42)C3)nc1 [Compound I-8] | –
13 | 22.5 | N#Cc1ccc(-c2nn3c(c2NC(=O)CC(F)(F)F)C(=O)N[C@]2(CCc4cc(OCC(F)(F)F)ccc42)C3)nc1 [Compound I-9] | –
14 | 1.91 | N#Cc1ccc(-c2nn3c(c2NC(=O)C2CS(=O)(=O)C2)C(=O)N[C@]2(CCc4cc(OCC(F)(F)F)ccc42)C3)nc1 [Compound I-10] | –
15 | 1.08 | CNS(=O)(=O)CC(=O)Nc1c(-c2ccc(C#N)cn2)nn2c1C(=O)N[C@]1(CCc3cc(OCC(F)(F)F)ccc31)C2 [Compound I-11] | –
16 | 9.48 | N#Cc1ccc(-c2nn3c(c2NC(=O)COC(F)(F)F)C(=O)N[C@]2(CCc4cc(OCC(F)(F)F)ccc42)C3)nc1 [Compound I-12] | –
17 | 2.56 | N#Cc1ccc(-c2nn3c(c2NC(=O)C2CS(=O)(=O)C2)C(=O)N[C@@]2(CCc4cc(OCC(F)(F)F)ccc42)C3)nc1 [Compound I-15] | –
18 | 1.44 | CNS(=O)(=O)CC(=O)Nc1c(-c2ccc(C#N)cn2)nn2c1C(=O)N[C@@]1(CCc3cc(OCC(F)(F)F)ccc31)C2 [Compound I-16] | –
19 | 58 | N#Cc1ccc(-c2nn3c(c2NC(=O)COC(F)(F)F)C(=O)N[C@@]2(CCc4cc(OCC(F)(F)F)ccc42)C3)nc1 [Compound I-17] | –
20 | 3.6 | CS(=O)(=O)CC(=O)Nc1c(-c2ccccn2)nn2c1C(=O)N[C@]1(CCc3cc(OCC(F)(F)F)ccc31)C2 [Compound I-18] | –
21 | 5.19 | CS(=O)(=O)CC(=O)Nc1c(-c2ccccn2)nn2c1C(=O)N[C@@]1(CCc3cc(OCC(F)(F)F)ccc31)C2 [Compound I-19] | –
22 | 3.27 | Cc1cccc(-c2nn3c(c2NC(=O)CS(C)(=O)=O)C(=O)N[C@@]2(CCc4cc(OCC(F)(F)F)ccc42)C3)c1 [Compound I-21] | –
23 | 93.5 | Cc1ccccc1-c1nn2c(c1NC(=O)CS(C)(=O)=O)C(=O)N[C@@]1(CCc3cc(OCC(F)(F)F)ccc31)C2 [Compound I-22] | –
24 | 1.2 | CS(=O)(=O)CC(=O)Nc1c(-c2ccc(F)cc2)nn2c1C(=O)N[C@@]1(CCc3cc(OCC(F)(F)F)ccc31)C2 [Compound I-23] | –
25 | 1.37 | CS(=O)(=O)CC(=O)Nc1c(-c2ccc(C(F)F)cc2)nn2c1C(=O)N[C@@]1(CCc3cc(OCC(F)(F)F)ccc31)C2 [Compound I-24] | –

Row | IC50 [nM] | Compound | other results
26 | 1.33 | CS(=O)(=O)CC(=O)Nc1c(-c2ccc(C(F)(F)F)cc2)nn2c1C(=O)N[C@@]1(CCc3cc(OCC(F)(F)F)ccc31)C2 [Compound I-25] | –
27 | 20.1 | COc1ccc(-c2nn3c(c2NC(=O)CS(C)(=O)=O)C(=O)N[C@@]2(CCc4cc(OCC(F)(F)F)ccc42)C3)cc1 [Compound I-26] | –
28 | 7.01 | CS(=O)(=O)CC(=O)Nc1c(-c2ccc(OC(F)(F)F)cc2)nn2c1C(=O)N[C@@]1(CCc3cc(OCC(F)(F)F)ccc31)C2 [Compound I-27] | –
29 | 3.89 | CS(=O)(=O)CC(=O)Nc1c(-c2ccc(OC(F)F)cc2)nn2c1C(=O)N[C@@]1(CCc3cc(OCC(F)(F)F)ccc31)C2 [Compound I-28] | –
30 | 4.91 | CS(=O)(=O)CC(=O)Nc1c(-c2ccc(C3CC3)cc2)nn2c1C(=O)N[C@@]1(CCc3cc(OCC(F)(F)F)ccc31)C2 [Compound I-29] | –
31 | 193 | CS(=O)(=O)CC(=O)Nc1c(-c2ccc(OC3CC3)cc2)nn2c1C(=O)N[C@@]1(CCc3cc(OCC(F)(F)F)ccc31)C2 [Compound I-30] | –
32 | 2.23 | CS(=O)(=O)CC(=O)Nc1c(-c2ccc(C#N)cc2)nn2c1C(=O)N[C@@]1(CCc3cc(OCC(F)(F)F)ccc31)C2 [Compound I-31] | –
33 | 1.19 | Cc1cc(-c2nn3c(c2NC(=O)CS(C)(=O)=O)C(=O)N[C@@]2(CCc4cc(OCC(F)(F)F)ccc42)C3)ccc1F [Compound I-32] | –
34 | 1.36 | Cc1ccc(-c2nn3c(c2NC(=O)CS(C)(=O)=O)C(=O)N[C@@]2(CCc4cc(OCC(F)(F)F)ccc42)C3)cc1F [Compound I-34] | –
35 | 32.2 | Cc1cc(F)ccc1-c1nn2c(c1NC(=O)CS(C)(=O)=O)C(=O)N[C@@]1(CCc3cc(OCC(F)(F)F)ccc31)C2 [Compound I-35] | –
36 | 0.617 | CS(=O)(=O)CC(=O)Nc1c(-c2cc(F)c(F)c(F)c2)nn2c1C(=O)N[C@@]1(CCc3cc(OCC(F)(F)F)ccc31)C2 [Compound I-36] | –
37 | 21.2 | CC(C)(O)c1ccc(-c2nn3c(c2NC(=O)CS(C)(=O)=O)C(=O)N[C@@]2(CCc4cc(OCC(F)(F)F)ccc42)C3)cc1 [Compound I-37] | –
38 | 5.31 | Cc1ccc(-c2nn3c(c2NC(=O)c2ccno2)C(=O)N[C@]2(CCc4cc(OCC(F)(F)F)ccc42)C3)nc1 [Compound I-38] | –
39 | 248 | Cc1ccc(-c2nn3c(c2NC(=O)CC(F)(F)F)C(=O)N[C@]2(CCc4cc(OCC(F)(F)F)ccc42)C3)nc1 [Compound I-39] | –
40 | 7.33 | Cc1ccc(-c2nn3c(c2NC(=O)C2CS(=O)(=O)C2)C(=O)N[C@]2(CCc4cc(OCC(F)(F)F)ccc42)C3)nc1 [Compound I-40] | –
41 | 1.04 | CNS(=O)(=O)CC(=O)Nc1c(-c2ccc(C)cn2)nn2c1C(=O)N[C@]1(CCc3cc(OCC(F)(F)F)ccc31)C2 [Compound I-41] | –
42 | 11.3 | Cc1ccc(-c2nn3c(c2NC(=O)c2ccno2)C(=O)N[C@@]2(CCc4cc(OCC(F)(F)F)ccc42)C3)nc1 [Compound I-42] | –
43 | 368 | Cc1ccc(-c2nn3c(c2NC(=O)CC(F)(F)F)C(=O)N[C@@]2(CCc4cc(OCC(F)(F)F)ccc42)C3)nc1 [Compound I-43] | –
44 | 13.4 | Cc1ccc(-c2nn3c(c2NC(=O)C2CS(=O)(=O)C2)C(=O)N[C@@]2(CCc4cc(OCC(F)(F)F)ccc42)C3)nc1 [Compound I-44] | –
45 | 1.09 | CNS(=O)(=O)CC(=O)Nc1c(-c2ccc(C)cn2)nn2c1C(=O)N[C@@]1(CCc3cc(OCC(F)(F)F)ccc31)C2 [Compound I-45] | –
46 | 2.73 | CCCCCc1nn2c(c1NC(=O)CS(C)(=O)=O)C(=O)N[C@@]1(CCc3cc(OCC(F)(F)F)ccc31)C2 [Compound I-47] | –
47 | 419 | CS(=O)(=O)CC(=O)Nc1c(-c2ccc(S(C)(=O)=O)cc2)nn2c1C(=O)N[C@@]1(CCc3cc(OCC(F)(F)F)ccc31)C2 [Compound I-48] | –
48 | 4.79 | CC(C)c1ccc(-c2nn3c(c2NC(=O)CS(C)(=O)=O)C(=O)N[C@@]2(CCc4cc(OCC(F)(F)F)ccc42)C3)cc1 [Compound I-49] | –
49 | 2.53 | CS(=O)(=O)CC(=O)Nc1c(-c2cc(F)cc(F)c2)nn2c1C(=O)N[C@@]1(CCc3cc(OCC(F)(F)F)ccc31)C2 [Compound I-50] | –
50 | 1.32 | CS(=O)(=O)CC(=O)Nc1c(-c2ccc(C#N)c(F)c2)nn2c1C(=O)N[C@@]1(CCc3cc(OCC(F)(F)F)ccc31)C2 [Compound I-51] | –
